Results reported in US9150526B2, “Biaryl-propionic acid derivatives and their use as pharmaceuticals” (SANOFI, priority 2013, dated 2015).

System: Recombinant human cathepsin A
Experiment: Cathepsin A inhibitory activity (Bodipy FL-bradykinin substrate, microfluidic capillary electrophoresis)
Format: biochemical
Details: read-out: CATH A IC50
Experimental: Pharmacological Tests a) Cathepsin a Inhibitory Activity
Recombinant human cathepsin A (residues 29-480, with a C-terminal 10-His tag; R&D Systems, #1049-SE) was proteolytically activated with recombinant human cathepsin L (R&D Systems, #952-CY). Briefly, cathepsin A was incubated at 10 μg/ml with cathepsin L at 1 μg/ml in activation buffer (25 mM 2-(morpholin-4-yl)-ethanesulfonic acid (MES), pH 6.0, containing 5 mM dithiothreitol (DTT)) for 15 min at 37° C.
The activated cathepsin A was diluted in assay buffer (25 mM MES, pH 5.5, containing 5 mM DTT) and mixed with the test compound (dissolved in assay buffer containing (v/v) 3% DMSO) or, in the control experiments, with the vehicle in a multiple assay plate. After incubation for 15 min at room temperature, as substrate then bradykinin carrying an N-terminal ®Bodipy FL (4,4-difluoro-5,7-dimethyl-4-bora-3a,4a-diaza-s-indacene-3-propionyl) label (JPT Peptide Technologies GmbH; dissolved in assay buffer) was added to the mixture. The final concentration of cathepsin A was 833 ng/ml and the final concentration of labeled bradykinin 2 μM. After incubation for 15 min at room temperature the reaction was stopped by the addition of stop buffer (130 mM 2-(4-(2-hydroxy-ethyl)-piperazin-1-yl)-ethanesulfonic acid, pH 7.4, containing (v/v) 0.013% ®Triton X-100, 0.13% Coating Reagent 3 (Caliper Life Sciences), 6.5% DMSO and 20 μM ebelactone B (Sigma, # E0886)).
Uncleaved substrate and product were then separated by a microfluidic capillary electrophoresis on a LabChip® 3000 Drug Discovery System (12-Sipper-Chip; Caliper Life Sciences) and quantified by determination of the respective peak areas. Substrate turnover was calculated by dividing product peak area by the sum of substrate and product peak areas, and the enzyme activity and the inhibitory effect of the test compound thus quantified.

SMILES | IC50
COc1ccc(C(C)(C)C)cc1-c1cccc(C(CC(=O)O)c2ncco2)c1 (centres unmarked) [compound 13] | 103 nM
COc1ccc(-c2cccc(C(CC(=O)O)c3nccs3)c2)c(OC)c1 (centres unmarked) [compound 29] | 185 nM
COc1ccc(F)c(F)c1-c1cccc(C(CC(=O)O)c2nccs2)c1 (centres unmarked) [compound 27] | 156 nM
COc1cc(C)cc(OC)c1-c1cc(Cl)cc(C(CC(=O)O)c2nnc(C)o2)c1 (centres unmarked) [compound 155] | 8 nM
COc1ccc(C(C)C)cc1-c1cccc([C@@H](CC(=O)O)c2nnc(C)o2)c1 [compound 185] | 27 nM
COc1cccc(Cl)c1-c1cccc(C(CC(=O)O)c2nccs2)c1 (centres unmarked) [compound 31] | 292 nM
COc1ccc(-c2cncc(C(CC(=O)O)c3nnc(C)o3)c2)c(OC)c1 (centres unmarked) [compound 194] | 7140 nM
COc1ccccc1-c1ccc(OC)c(C(CC(=O)O)c2ncc(C)s2)c1 (centres unmarked) [compound 66] | 4410 nM
COC(=O)c1ccc(OC)c(-c2cccc(C(CC(=O)O)c3nccs3)c2)c1 (centres unmarked) [compound 23] | 140 nM
COc1c(Cl)cccc1-c1cccc(C(CC(=O)O)c2nccs2)c1 (centres unmarked) [compound 44] | 1280 nM
COc1ccccc1-c1cc(Cl)cc(C(CC(=O)O)c2ncc(C)s2)c1 (centres unmarked) [compound 75] | 21 nM
COc1cccc(OC)c1-c1cc(Cl)cc(C(CC(=O)O)c2ncc(C)s2)c1 (centres unmarked) [compound 10] | 7 nM
CCOc1ccccc1-c1cccc(C(CC(=O)O)c2nnc(C)o2)c1 (centres unmarked) [compound 144] | 91 nM
COc1ccc(Cl)cc1-c1cc(Cl)cc(C(CC(=O)O)c2ncc(C)s2)c1 (centres unmarked) [compound 8] | 34 nM
COc1ccc(CO)cc1-c1cccc(C(CC(=O)O)c2nnc(C)o2)c1 (centres unmarked) [compound 141] | 72 nM
COc1cc(C)cc(OC)c1-c1cncc(C(CC(=O)O)c2nnc(C)o2)c1 (centres unmarked) [compound 186] | 343 nM
COc1cccc(OC)c1-c1cccc(C(CC(=O)O)c2ncc(C)s2)c1 (centres unmarked) [compound 51] | 11 nM
Cc1nnc(C(CC(=O)O)c2cc(Cl)cc(-c3ccccc3OC(F)(F)F)c2)o1 (centres unmarked) [compound 158] | 89 nM
COc1cccc(F)c1-c1cccc(C(CC(=O)O)c2ncc(C)s2)c1 (centres unmarked) [compound 59] | 171 nM
COc1ccc(Cl)cc1-c1cccc(C(CC(=O)O)c2nccs2)c1 (centres unmarked) [compound 1] | 160 nM
COc1ccc(OC)c(-c2cc(C(CC(=O)O)c3nnc(C)o3)cc(C(F)(F)F)c2)c1 (centres unmarked) [compound 201] | 14 nM

SMILES | IC50
COc1ccc(F)cc1-c1ccc(OC)c(C(CC(=O)O)c2ncc(C)s2)c1 (centres unmarked) [compound 63] | 1170 nM
COc1ccc(C)cc1-c1cc(Cl)cc(C(CC(=O)O)c2ncc(C)s2)c1 (centres unmarked) [compound 81] | 52 nM
COc1ccccc1-c1cncc(C(CC(=O)O)c2nnc(C)o2)c1 (centres unmarked) [compound 190] | 5800 nM
COc1ccc(C(C)C)cc1-c1cc(C(CC(=O)O)c2nnc(C)o2)cc(C(F)(F)F)c1 (centres unmarked) [compound 204] | 31 nM
COc1c(F)cc(F)cc1-c1cccc(C(CC(=O)O)c2ncc(C)s2)c1 (centres unmarked) [compound 61] | 367 nM
COc1ccc(F)cc1-c1cccc(C(CC(=O)O)c2ncc(C)s2)c1 (centres unmarked) [compound 55] | 96 nM
COc1cc(OC(F)(F)F)ccc1-c1cccc(C(CC(=O)O)c2nccs2)c1 (centres unmarked) [compound 46] | 1530 nM
COc1ccc(C(C)(C)C)cc1-c1cccc(C(CC(=O)O)c2nnc(C)o2)c1 (centres unmarked) [compound 9] | 61 nM
COc1ccc(C)cc1-c1cccc(C(CC(=O)O)c2nnc(C)o2)c1 (centres unmarked) [compound 136] | 24 nM
COc1ccc(C(C)(C)C)cc1-c1cc(C(CC(=O)O)c2nnc(C)o2)cc(C(F)(F)F)c1 (centres unmarked) [compound 203] | 17 nM
COc1ccc(C(C)(C)C)cc1-c1cc(Cl)cc(C(CC(=O)O)c2ncc(C)s2)c1 (centres unmarked) [compound 85] | 55 nM
COc1c(C)cccc1-c1cc(C(CC(=O)O)c2nnc(C)o2)cc(C(F)(F)F)c1 (centres unmarked) [compound 220] | 53 nM
COc1cc(C(N)=O)ccc1-c1cc(Cl)cc(C(CC(=O)O)c2ncc(C)s2)c1 (centres unmarked) [compound 89] | 118 nM
CCOc1ccccc1-c1cc(Cl)cc(C(CC(=O)O)c2nnc(C)o2)c1 (centres unmarked) [compound 177] | 24 nM
COc1ccc(C(C)(C)C)cc1-c1cccc(C(CC(=O)O)c2nccs2)c1 (centres unmarked) [compound 4] | 119 nM
COc1ccc(C#N)cc1-c1cccc(C(CC(=O)O)c2nccs2)c1 (centres unmarked) [compound 39] | 618 nM
COc1cccc(F)c1-c1cc(C(CC(=O)O)c2nnc(C)o2)cc(C(F)(F)F)c1 (centres unmarked) [compound 212] | 8 nM
COc1cccc(C#N)c1-c1cc(F)cc(C(CC(=O)O)c2nnc(C)o2)c1 (centres unmarked) [compound 163] | 446 nM
COc1cccc(Cl)c1-c1cncc(C(CC(=O)O)c2nnc(C)o2)c1 (centres unmarked) [compound 199] | 3560 nM
COc1c(F)cc(F)cc1-c1cc(Cl)cc(C(CC(=O)O)c2ncc(C)s2)c1 (centres unmarked) [compound 91] | 131 nM
COc1cc(CO)ccc1-c1cccc(C(CC(=O)O)c2nccs2)c1 (centres unmarked) [compound 30] | 201 nM

SMILES | IC50
COc1ccc(Cl)cc1-c1cccc(C(CC(=O)O)c2ncc(C)s2)c1 (centres unmarked) [compound 62] | 262 nM
COc1cccc(OC(C)C)c1-c1cccc(C(CC(=O)O)c2nccs2)c1 (centres unmarked) [compound 28] | 165 nM
COc1ccc(OC)c(-c2cc(Cl)cc(C(CC(=O)O)c3ncc(C)s3)c2)c1OC (centres unmarked) [compound 72] | 18 nM
CCOc1ccccc1-c1cc(C(CC(=O)O)c2nnc(C)o2)cc(C(F)(F)F)c1 (centres unmarked) [compound 210] | 14 nM
COc1ccc(O)cc1-c1cccc(C(CC(=O)O)c2nccs2)c1 (centres unmarked) [compound 32] | 307 nM
COc1cccc(OC)c1-c1cncc(C(CC(=O)O)c2nnc(C)o2)c1 (centres unmarked) [compound 184] | 160 nM
COc1ccc2c(c1-c1cc(Cl)cc(C(CC(=O)O)c3nnc(C)o3)c1)OC(C)(C)C2 (centres unmarked) [compound 157] | 17 nM
COc1ccccc1-c1cc(C(CC(=O)O)c2nnc(C)o2)cc(C(F)(F)F)c1 (centres unmarked) [compound 217] | 13 nM
COc1cccc(C(=O)N2CCCC2)c1-c1cc(C(CC(=O)O)c2nnc(C)o2)cc(C(F)(F)F)c1 (centres unmarked) [compound 216] | 1460 nM
COc1cccc(C#N)c1-c1cc(Cl)cc(C(CC(=O)O)c2ncc(C)s2)c1 (centres unmarked) [compound 88] | 103 nM
COc1cccc(Cl)c1-c1cc(Cl)cc(C(CC(=O)O)c2ncc(C)s2)c1 (centres unmarked) [compound 84] | 53 nM
COc1cccc(F)c1-c1cc(F)cc(C(CC(=O)O)c2nnc(C)o2)c1 (centres unmarked) [compound 179] | 67 nM
COc1cc(C)cc(OC)c1-c1cccc(C(CC(=O)O)c2nccs2)c1 (centres unmarked) [compound 14] | 66 nM
COc1ccc(Cl)cc1-c1cncc(C(CC(=O)O)c2nnc(C)o2)c1 (centres unmarked) [compound 191] | 3910 nM
COc1ccc(-c2cc(C(CC(=O)O)c3nnc(C)o3)cc(C(F)(F)F)c2)c(OC)c1 (centres unmarked) [compound 211] | 23 nM
COc1ccc(OC(F)(F)F)cc1-c1cc(F)cc(C(CC(=O)O)c2ncc(C)s2)c1 (centres unmarked) [compound 124] | 275 nM
COc1ccc(C(C)C)cc1-c1cc(F)cc(C(CC(=O)O)c2nnc(C)o2)c1 (centres unmarked) [compound 160] | 44 nM
COc1ccc(C(C)C)cc1-c1cccc(C(CC(=O)O)c2ncc(C)s2)c1 (centres unmarked) [compound 56] | 97 nM
COc1ccc(F)cc1-c1cccc(C(CC(=O)O)c2nccs2)c1 (centres unmarked) [compound 3] | 160 nM
COc1ccc(OC(F)(F)F)cc1-c1cc(F)cc(C(CC(=O)O)c2ncco2)c1 (centres unmarked) [compound 122] | 222 nM
